Values quoted from earlier work in patent publication US11510865B2, “Magnolia bark extract as a hydrophobic ligand for preferential removal of gram negative bacteria from the oral cavity” (WM. WRIGLEY JR. COMPANY, priority 2015, dated 2022).

Test system: S. mutans (ATCC 10449)
Conditions: increased from 0.01; Jongsma et al. 2015

For Oc1cc(Cl)ccc1Oc1ccc(Cl)cc1Cl [triclosan], the removal rate is given as 0.05.
